In ChEMBL document CHEMBL3576841, “Structure-Activity Relationship and Pharmacokinetic Studies of 1,5-Diheteroarylpenta-1,4-dien-3-ones: A Class of Promising Curcumin-Based Anticancer Agents” (J Med Chem, 2015) one finds inhibition data, which are given here for nine molecules.

Common to all, as to format: functional
Experiment [1] relates to DU-145. The experiment can be described thus: Cytotoxicity against human DU145 cells assessed as inhibition of cell viability at 1 uM after 3 days by trypan blue dye exclusion assay. The settings on record: DU-145, 72 h.
The subject of experiment [2] is HeLa. The experiment can be described thus: Cytotoxicity against human HeLa cells assessed as inhibition of cell viability at 1 uM after 3 days by trypan blue dye exclusion assay. The settings on record: 72 h.
The subject of experiment [3] is LNCaP. Briefly: Cytotoxicity against human LNCAP cells assessed as inhibition of cell viability at 1 uM after 3 days by trypan blue dye exclusion assay. The settings on record: 72 h.
The subject of experiment [4] is LNCaP. Briefly: Cytotoxicity against human LNCAP cells assessed as inhibition of cell viability at 10 uM after 3 days by trypan blue dye exclusion assay. Conditions: 72 h.
Experiment [5] relates to HeLa. The experiment can be described thus: Cytotoxicity against human HeLa cells assessed as inhibition of cell viability at 10 uM after 3 days by trypan blue dye exclusion assay. Conditions: 72 h.
For experiment [6], the system named is DU-145. The experiment can be described thus: Cytotoxicity against human DU145 cells assessed as inhibition of cell viability at 10 uM after 3 days by trypan blue dye exclusion assay. Conditions: DU-145, 72 h.
For experiment [7], the system named is PC-3. Briefly: Cytotoxicity against human PC3 cells assessed as inhibition of cell viability at 10 uM after 3 days by trypan blue dye exclusion assay. The settings on record: PC-3, 72 h.
Experiment [8] concerns PC-3. Briefly: Cytotoxicity against human PC3 cells assessed as inhibition of cell viability at 1 uM after 3 days by trypan blue dye exclusion assay. Conditions: PC-3, 72 h.

In general, inhibition refers to the share of the control response that was lost under treatment.

Each structure is given as a SMILES string.

On to `O=C(/C=C/c1cccnc1)/C=C/c1cccnc1`, for which the inhibition at 1 µM in experiment [1] is 4.76%; in experiment [2] it was 26.6%; in experiment [3], 15.7%; in experiment [8], 8.05%. Besides, the inhibition at 10 µM in experiment [4] was determined as 53.7%; in experiment [5], 97.7%; in experiment [6] it was 77.7%; in experiment [7] it was 86.7%.
Take `O=C(/C=C/c1cccc(Br)n1)/C=C/c1cccc(Br)n1`: the inhibition at 1 µM in experiment [1] was found to be 21.4%; in experiment [2], 14.6%; in experiment [3], 45.7%; in experiment [8] it was 13.2%. The inhibition at 10 µM is 65% in experiment [4], 89.6% in experiment [5], 83% in experiment [6] and 91.9% in experiment [7].
With `O=C(/C=C/c1ccc(C(F)(F)F)nc1)/C=C/c1ccc(C(F)(F)F)nc1`, the inhibition at 1 µM worked out at 0.01% in experiment [1], 33.8% in experiment [2], 22.6% in experiment [3] and 37.9% in experiment [8]. Further, the inhibition at 10 µM in experiment [4] amounted to 68.8%; in experiment [5], 97.9%; in experiment [6] it was 75.5%; in experiment [7], 91.6%.
Consider `O=C(/C=C/c1ccncc1)/C=C/c1ccncc1`, for which the inhibition at 1 µM in experiment [1] is 31.9%; in experiment [2], 40.2%; in experiment [3] it was 29.6%; in experiment [8], 32%. The inhibition at 10 µM came out at 78.7% in experiment [4], 95% in experiment [5], 89.7% in experiment [6] and 87.8% in experiment [7].
Turning to `O=C(/C=C/c1ccc2ccccc2n1)/C=C/c1ccc2ccccc2n1`, the inhibition at 1 µM in experiment [1] was 23.5%; in experiment [2], 21.2%; in experiment [3] it was 9.61%; in experiment [8], 0.9%. In addition, the inhibition at 10 µM in experiment [4] turned out to be 67%; in experiment [5] it was 96.5%; in experiment [6] it was 86.5%; in experiment [7], 83.8%.
Turning to `O=C(/C=C/c1cc2ccccc2nc1Cl)/C=C/c1cc2ccccc2nc1Cl`, the inhibition at 1 µM in experiment [1] was 6.22%; in experiment [2], 6.64%; in experiment [3], 11.6%; in experiment [8], 0%. The inhibition at 10 µM in experiment [4] stood at 14.3%; in experiment [5], 21.5%; in experiment [6], 6.22%; in experiment [7] it was 1.64%.
For `Cc1nc(/C=C/C(=O)/C=C/c2nc(C)c(-c3ccncc3)s2)sc1-c1ccncc1`, the inhibition at 1 µM was 13.5% in experiment [1], 22.9% in experiment [2], 34.4% in experiment [3] and 14.4% in experiment [8]. The inhibition at 10 µM in experiment [4] was 23.4%; in experiment [5], 49%; in experiment [6] it was 35.2%; in experiment [7] it was 25.7%.
Regarding `O=C(/C=C/c1nc2ccccc2s1)/C=C/c1nc2ccccc2s1`, the inhibition at 1 µM is 18.2% in experiment [1], 21.3% in experiment [2], 21.9% in experiment [3] and 6.29% in experiment [8]. The inhibition at 10 µM in experiment [4] came out at 69.5%; in experiment [5] it was 96.2%; in experiment [6], 46.8%; in experiment [7], 69.8%.
For `CCCCCCCn1c(/C=C/C(=O)/C=C/c2nc3ccccc3n2CCCCCCC)nc2ccccc21`, the inhibition at 1 µM was determined as 36.5% in experiment [1], 90.4% in experiment [2], 42.1% in experiment [3] and 72.8% in experiment [8]. For the same molecule, the inhibition at 10 µM in experiment [4] turned out to be 74.7%; in experiment [5] it was 97.5%; in experiment [6], 86.1%; in experiment [7], 88.1%.
